This note sets out measurements from patent US20240336748A1, “A METHOD FOR PREPARING HYALURONIC ACID GRAFTED POLY(N-ISOPROPYLACRYLAMIDE) (HA-G-PNI-PAM)” (NABSOLUTE COMPANY LIMITED, priority 2021, published 2024).

The test system of the data set is fibroblast L929 cell. The experiment in a line: Side effect test, toxic reduction of asiatic acid, PrestoBlue assay. The note with it: 12.5 μM asiatic acid dissolved in DMSO in cell culture media. The data set is classed as cell-based.

Source text: Side effect test of Sample 2 in colloid form at concentration of 0, 0.1, 0.15 and 0.25% w/v form was studied by considering the toxic reduction of asiatic acid in fibroblast L929 cell via PrestoBlue™ assay.

For the compound `C[C@H]1[C@H](C)CC[C@]2(C(=O)O)CC[C@]3(C)C(=CC[C@@H]4[C@@]5(C)C[C@@H](O)[C@H](O)[C@@](C)(CO)[C@@H]5CC[C@]43C)[C@H]12` [asiatic acid], the Cell viability is reported as 5%.
